Source: the kinase profiling compilation of Christmann-Franck et al. (2016)

Legend:
Experiment in all cases: radiometric filter-binding kinase assay, Kinase HotSpot
Conditions in all cases: compound 0.5 µM; ATP 10 µM
TEC (human) = TEC (human) (UniProt P42680)
PAK6 (human) = PAK6 (human) (UniProt Q9NQU5)
MINK1 (human) = MINK1 (human) (UniProt Q8N4C8)
CDK7 CCNH MNAT1 (human) = CDK7 CCNH MNAT1 (human) (UniProt P50613+P51948+P51946)
KIT (human) = KIT (human) (UniProt P10721)
PRKCD (human) = PRKCD (human) (UniProt Q05655)
PDGFRB (human) = PDGFRB (human) (UniProt P09619)
TYRO3 (human) = TYRO3 (human) (UniProt Q06418)
CLK1 (human) = CLK1 (human) (UniProt P49759)
ERBB4 (human) = ERBB4 (human) (UniProt Q15303)
STK25 (human) = STK25 (human) (UniProt O00506)
CSF1R (human) = CSF1R (human) (UniProt P07333)
MAPK13 (human) = MAPK13 (human) (UniProt O15264)
Chain of MAPK13 (human) (O15264 whole entry, looked up): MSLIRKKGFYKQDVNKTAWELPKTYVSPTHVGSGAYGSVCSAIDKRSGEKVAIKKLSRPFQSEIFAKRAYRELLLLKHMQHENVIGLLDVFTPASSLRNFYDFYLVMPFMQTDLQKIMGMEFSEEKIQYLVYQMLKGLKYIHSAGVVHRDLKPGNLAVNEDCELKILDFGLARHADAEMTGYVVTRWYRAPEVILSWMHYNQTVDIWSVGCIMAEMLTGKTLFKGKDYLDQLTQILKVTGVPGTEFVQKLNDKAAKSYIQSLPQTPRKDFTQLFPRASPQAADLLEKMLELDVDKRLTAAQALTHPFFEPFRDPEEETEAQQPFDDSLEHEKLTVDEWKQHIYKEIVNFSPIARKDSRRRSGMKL

AKT2 (human) = AKT2 (human) (UniProt P31751)
PHKG2 (human) = PHKG2 (human) (UniProt P15735)
CDK6 CCND1 (human) = CDK6 CCND1 (human) (UniProt Q00534+P24385)
ROS1 (human) = ROS1 (human) (UniProt P08922)
PLK2 (human) = PLK2 (human) (UniProt Q9NYY3)
DAPK3 (human) = DAPK3 (human) (UniProt O43293)
FLT1 (human) = FLT1 (human) (UniProt P17948)
FGFR1 (human) = FGFR1 (human) (UniProt P11362)
FER (human) = FER (human) (UniProt P16591)
Chain of FER (human) (P16591 whole entry, looked up): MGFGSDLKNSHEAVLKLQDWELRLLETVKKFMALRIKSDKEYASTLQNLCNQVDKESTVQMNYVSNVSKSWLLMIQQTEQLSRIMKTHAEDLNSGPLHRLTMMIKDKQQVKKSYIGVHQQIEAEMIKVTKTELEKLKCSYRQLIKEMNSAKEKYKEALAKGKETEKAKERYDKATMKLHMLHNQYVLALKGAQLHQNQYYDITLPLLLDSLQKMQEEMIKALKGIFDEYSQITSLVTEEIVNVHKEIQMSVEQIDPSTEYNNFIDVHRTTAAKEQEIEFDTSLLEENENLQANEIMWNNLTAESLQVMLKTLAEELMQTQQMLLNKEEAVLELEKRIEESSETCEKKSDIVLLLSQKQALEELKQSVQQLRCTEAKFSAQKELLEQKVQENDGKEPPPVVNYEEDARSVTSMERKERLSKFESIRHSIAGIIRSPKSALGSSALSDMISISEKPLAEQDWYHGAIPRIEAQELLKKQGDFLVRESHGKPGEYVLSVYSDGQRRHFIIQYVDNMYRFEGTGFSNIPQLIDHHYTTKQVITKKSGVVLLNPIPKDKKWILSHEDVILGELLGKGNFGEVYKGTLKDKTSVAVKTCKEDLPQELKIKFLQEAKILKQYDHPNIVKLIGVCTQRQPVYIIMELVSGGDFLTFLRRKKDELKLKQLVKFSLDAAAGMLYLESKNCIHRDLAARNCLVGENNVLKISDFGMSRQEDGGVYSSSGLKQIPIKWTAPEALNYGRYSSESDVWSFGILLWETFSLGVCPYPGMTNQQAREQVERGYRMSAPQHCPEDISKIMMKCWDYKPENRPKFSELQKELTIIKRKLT

MAP3K8 (human) = MAP3K8 (human) (UniProt P41279)
CDK5 CDK5R1 p35 (human) = CDK5 CDK5R1 p35 (human) (UniProt Q00535+Q15078)
MAP3K3 (human) = MAP3K3 (human) (UniProt Q99759)
[1] = target: TYK2 JH1 catalytic (human) (UniProt P29597)
TEK (human) = TEK (human) (UniProt Q02763)
Chain of TEK (human) (Q02763 whole entry, looked up): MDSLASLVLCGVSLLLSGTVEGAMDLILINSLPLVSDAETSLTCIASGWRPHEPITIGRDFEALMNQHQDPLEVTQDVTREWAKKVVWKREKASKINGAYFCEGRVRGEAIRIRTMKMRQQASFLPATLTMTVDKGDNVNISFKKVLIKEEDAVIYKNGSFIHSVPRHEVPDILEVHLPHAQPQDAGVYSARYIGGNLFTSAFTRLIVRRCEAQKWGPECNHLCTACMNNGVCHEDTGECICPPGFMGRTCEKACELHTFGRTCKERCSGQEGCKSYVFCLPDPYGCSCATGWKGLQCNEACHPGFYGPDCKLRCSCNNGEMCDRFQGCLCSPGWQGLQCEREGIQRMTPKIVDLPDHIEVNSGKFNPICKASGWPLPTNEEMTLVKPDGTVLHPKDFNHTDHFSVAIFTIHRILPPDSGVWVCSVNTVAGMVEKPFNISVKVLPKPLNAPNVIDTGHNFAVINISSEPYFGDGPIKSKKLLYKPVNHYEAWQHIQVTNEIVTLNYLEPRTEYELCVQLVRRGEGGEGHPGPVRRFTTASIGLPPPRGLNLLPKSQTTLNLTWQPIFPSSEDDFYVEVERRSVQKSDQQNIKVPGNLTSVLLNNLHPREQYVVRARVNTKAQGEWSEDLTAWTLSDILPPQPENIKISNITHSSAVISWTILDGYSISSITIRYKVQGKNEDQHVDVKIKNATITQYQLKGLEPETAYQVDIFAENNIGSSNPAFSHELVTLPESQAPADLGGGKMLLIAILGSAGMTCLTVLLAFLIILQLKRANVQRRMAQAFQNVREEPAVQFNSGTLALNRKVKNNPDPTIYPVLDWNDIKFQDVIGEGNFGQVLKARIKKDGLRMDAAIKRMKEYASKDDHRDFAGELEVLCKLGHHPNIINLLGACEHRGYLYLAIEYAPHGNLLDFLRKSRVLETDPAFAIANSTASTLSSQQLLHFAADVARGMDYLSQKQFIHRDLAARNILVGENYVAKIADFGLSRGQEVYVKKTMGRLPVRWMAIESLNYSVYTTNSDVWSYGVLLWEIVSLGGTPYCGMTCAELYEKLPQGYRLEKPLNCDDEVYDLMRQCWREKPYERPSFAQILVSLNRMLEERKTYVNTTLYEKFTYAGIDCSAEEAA

TNK2 (human) = TNK2 (human) (UniProt Q07912)
DMPK (human) = DMPK (human) (UniProt Q09013)
ROCK2 (human) = ROCK2 (human) (UniProt O75116)
AURKC (human) = AURKC (human) (UniProt Q9UQB9)
CSNK1G1 (human) = CSNK1G1 (human) (UniProt Q9HCP0)
PIM2 (human) = PIM2 (human) (UniProt Q9P1W9)
LCK (human) = LCK (human) (UniProt P06239)
EPHA4 (human) = EPHA4 (human) (UniProt P54764)
GRK5 (human) = GRK5 (human) (UniProt P34947)
CDK2 CCNA2 (human) = CDK2 CCNA2 (human) (UniProt P24941+P20248)
MUSK (human) = MUSK (human) (UniProt O15146)
Chain of MUSK (human) (O15146 whole entry, looked up): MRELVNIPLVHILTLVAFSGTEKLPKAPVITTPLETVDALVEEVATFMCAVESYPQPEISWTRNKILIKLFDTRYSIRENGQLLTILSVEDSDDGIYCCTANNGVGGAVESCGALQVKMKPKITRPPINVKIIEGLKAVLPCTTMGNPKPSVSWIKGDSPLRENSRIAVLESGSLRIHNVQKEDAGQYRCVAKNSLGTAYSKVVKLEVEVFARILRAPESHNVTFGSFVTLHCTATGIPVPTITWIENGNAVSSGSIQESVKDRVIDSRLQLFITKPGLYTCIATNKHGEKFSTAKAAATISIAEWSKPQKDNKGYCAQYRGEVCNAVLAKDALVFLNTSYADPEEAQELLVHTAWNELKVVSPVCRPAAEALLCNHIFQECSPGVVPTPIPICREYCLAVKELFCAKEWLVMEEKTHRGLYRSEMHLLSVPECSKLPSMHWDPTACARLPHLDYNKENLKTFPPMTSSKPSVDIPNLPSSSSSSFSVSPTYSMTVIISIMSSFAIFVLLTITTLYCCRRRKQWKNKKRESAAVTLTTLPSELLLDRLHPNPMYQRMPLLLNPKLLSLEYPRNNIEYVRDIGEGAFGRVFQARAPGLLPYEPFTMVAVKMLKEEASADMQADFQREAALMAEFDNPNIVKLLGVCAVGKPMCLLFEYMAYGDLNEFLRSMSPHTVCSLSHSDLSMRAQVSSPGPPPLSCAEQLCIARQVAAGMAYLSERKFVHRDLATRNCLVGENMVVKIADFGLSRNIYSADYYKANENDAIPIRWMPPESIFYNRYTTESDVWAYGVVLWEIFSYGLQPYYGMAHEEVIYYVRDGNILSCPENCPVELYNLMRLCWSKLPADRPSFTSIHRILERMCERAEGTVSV

ACVR1B (human) = ACVR1B (human) (UniProt P36896)
NEK3 (human) = NEK3 (human) (UniProt P51956)
MAPK3 (human) = MAPK3 (human) (UniProt P27361)
ZAP70 (human) = ZAP70 (human) (UniProt P43403)

Chain of TEC (human) (P42680 whole entry, looked up): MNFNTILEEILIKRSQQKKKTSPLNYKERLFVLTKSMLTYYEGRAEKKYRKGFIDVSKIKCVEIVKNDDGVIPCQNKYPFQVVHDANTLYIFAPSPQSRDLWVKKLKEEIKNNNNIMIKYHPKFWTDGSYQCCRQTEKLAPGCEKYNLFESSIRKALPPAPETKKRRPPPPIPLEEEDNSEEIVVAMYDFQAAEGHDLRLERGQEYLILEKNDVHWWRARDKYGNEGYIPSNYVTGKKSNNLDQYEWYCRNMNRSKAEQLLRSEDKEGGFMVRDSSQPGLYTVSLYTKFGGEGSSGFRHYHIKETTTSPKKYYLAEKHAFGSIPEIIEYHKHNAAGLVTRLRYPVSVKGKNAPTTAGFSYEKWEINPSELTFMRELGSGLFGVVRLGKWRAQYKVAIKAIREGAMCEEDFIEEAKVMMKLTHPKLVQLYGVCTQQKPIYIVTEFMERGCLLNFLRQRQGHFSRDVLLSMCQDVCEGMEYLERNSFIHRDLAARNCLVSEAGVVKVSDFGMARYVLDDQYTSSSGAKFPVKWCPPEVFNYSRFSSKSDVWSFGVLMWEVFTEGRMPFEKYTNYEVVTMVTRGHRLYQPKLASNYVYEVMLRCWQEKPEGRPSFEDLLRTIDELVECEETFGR
Chain of CDK7 CCNH MNAT1 (human) (P50613 whole entry, looked up): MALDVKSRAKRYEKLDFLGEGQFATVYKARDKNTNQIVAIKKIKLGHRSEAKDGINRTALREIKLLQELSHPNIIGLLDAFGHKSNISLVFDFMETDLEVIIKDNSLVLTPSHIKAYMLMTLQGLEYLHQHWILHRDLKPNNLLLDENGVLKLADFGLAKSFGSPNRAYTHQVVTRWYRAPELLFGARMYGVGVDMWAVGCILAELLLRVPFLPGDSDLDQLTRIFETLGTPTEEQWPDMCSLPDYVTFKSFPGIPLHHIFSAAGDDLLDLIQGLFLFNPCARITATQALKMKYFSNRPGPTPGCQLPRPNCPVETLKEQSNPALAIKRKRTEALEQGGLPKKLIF
Chain of CDK7 CCNH MNAT1 (human) (P51946 whole entry, looked up): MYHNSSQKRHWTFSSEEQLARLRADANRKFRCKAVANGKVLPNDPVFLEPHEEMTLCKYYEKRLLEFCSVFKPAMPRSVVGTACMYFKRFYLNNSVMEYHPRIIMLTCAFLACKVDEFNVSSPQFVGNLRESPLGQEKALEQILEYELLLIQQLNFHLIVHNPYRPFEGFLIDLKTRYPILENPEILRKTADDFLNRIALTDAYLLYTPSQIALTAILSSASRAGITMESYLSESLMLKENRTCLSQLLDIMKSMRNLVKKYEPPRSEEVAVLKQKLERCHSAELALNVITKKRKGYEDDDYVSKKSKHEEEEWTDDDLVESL
Chain of CDK7 CCNH MNAT1 (human) (P51948 whole entry, looked up): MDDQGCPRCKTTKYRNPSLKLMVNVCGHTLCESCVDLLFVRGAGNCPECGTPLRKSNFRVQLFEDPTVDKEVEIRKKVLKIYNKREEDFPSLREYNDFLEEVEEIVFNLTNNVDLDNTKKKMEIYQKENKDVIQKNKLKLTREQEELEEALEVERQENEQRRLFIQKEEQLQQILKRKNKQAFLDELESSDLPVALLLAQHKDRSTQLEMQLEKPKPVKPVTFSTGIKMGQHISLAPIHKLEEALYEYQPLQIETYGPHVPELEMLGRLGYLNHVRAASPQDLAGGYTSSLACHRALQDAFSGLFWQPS

Oc1ccc(Nc2nc(-c3ccc(Cl)cc3)cs2)cc1
residual activity (TEC (human)): 120% | residual activity (PAK6 (human)): 100% | residual activity (MINK1 (human)): 103% | residual activity (CDK7 CCNH MNAT1 (human)): 96.3% | residual activity (KIT (human)): 92% | residual activity (PRKCD (human)): 86.9% | residual activity (PDGFRB (human)): 107% | residual activity (TYRO3 (human)): 102% | residual activity (CLK1 (human)): 104% | residual activity (ERBB4 (human)): 83.3% | residual activity (STK25 (human)): 113% | residual activity (CSF1R (human)): 104% | residual activity (MAPK13 (human)): 107% | residual activity (AKT2 (human)): 96.4% | residual activity (PHKG2 (human)): 99.9% | residual activity (CDK6 CCND1 (human)): 101% | residual activity (ROS1 (human)): 96.9% | residual activity (PLK2 (human)): 105% | residual activity (DAPK3 (human)): 103% | residual activity (FLT1 (human)): 82.3% | residual activity (FGFR1 (human)): 82.5% | residual activity (FER (human)): 90.3% | residual activity (MAP3K8 (human)): 94.9% | residual activity (CDK5 CDK5R1 p35 (human)): 104% | residual activity (MAP3K3 (human)): 101% | residual activity [1]: 110% | residual activity (TEK (human)): 104% | residual activity (TNK2 (human)): 103% | residual activity (DMPK (human)): 102% | residual activity (ROCK2 (human)): 99.4% | residual activity (AURKC (human)): 97% | residual activity (CSNK1G1 (human)): 94.5% | residual activity (PIM2 (human)): 106% | residual activity (LCK (human)): 99.8% | residual activity (EPHA4 (human)): 104% | residual activity (GRK5 (human)): 92% | residual activity (CDK2 CCNA2 (human)): 98.6% | residual activity (MUSK (human)): 99.5% | residual activity (ACVR1B (human)): 89.5% | residual activity (NEK3 (human)): 98.4% | residual activity (MAPK3 (human)): 103% | residual activity (ZAP70 (human)): 94.7%

O=C(Nc1cccc(Nc2cc(Nc3cccc(C(F)(F)F)c3)ncn2)c1)C1CC1
residual activity (TEC (human)): 115% | residual activity (PAK6 (human)): 99.3% | residual activity (MINK1 (human)): 95.9% | residual activity (CDK7 CCNH MNAT1 (human)): 97.6% | residual activity (KIT (human)): 99.9% | residual activity (PRKCD (human)): 101% | residual activity (PDGFRB (human)): 101% | residual activity (TYRO3 (human)): 85.4% | residual activity (CLK1 (human)): 107% | residual activity (ERBB4 (human)): 99.2% | residual activity (STK25 (human)): 97.4% | residual activity (CSF1R (human)): 99.9% | residual activity (MAPK13 (human)): 106% | residual activity (AKT2 (human)): 103% | residual activity (PHKG2 (human)): 101% | residual activity (CDK6 CCND1 (human)): 99.1% | residual activity (ROS1 (human)): 93.5% | residual activity (PLK2 (human)): 109% | residual activity (DAPK3 (human)): 99.8% | residual activity (FLT1 (human)): 99.4% | residual activity (FGFR1 (human)): 103% | residual activity (FER (human)): 102% | residual activity (MAP3K8 (human)): 98.4% | residual activity (CDK5 CDK5R1 p35 (human)): 99.5% | residual activity (MAP3K3 (human)): 95.2% | residual activity [1]: 102% | residual activity (TEK (human)): 101% | residual activity (TNK2 (human)): 98.7% | residual activity (DMPK (human)): 99.7% | residual activity (ROCK2 (human)): 99.2% | residual activity (AURKC (human)): 104% | residual activity (CSNK1G1 (human)): 94.8% | residual activity (PIM2 (human)): 104% | residual activity (LCK (human)): 100% | residual activity (EPHA4 (human)): 96.5% | residual activity (GRK5 (human)): 109% | residual activity (CDK2 CCNA2 (human)): 99.5% | residual activity (MUSK (human)): 113% | residual activity (ACVR1B (human)): 101% | residual activity (NEK3 (human)): 94.4% | residual activity (MAPK3 (human)): 101% | residual activity (ZAP70 (human)): 93%

Cc1nc2cc3nc(-c4cccs4)cnc3cc2n1C
residual activity (TEC (human)): 158% | residual activity (PAK6 (human)): 96.6% | residual activity (MINK1 (human)): 98.9% | residual activity (CDK7 CCNH MNAT1 (human)): 102% | residual activity (KIT (human)): 40.4% | residual activity (PRKCD (human)): 78.6% | residual activity (PDGFRB (human)): 63.3% | residual activity (TYRO3 (human)): 103% | residual activity (CLK1 (human)): 111% | residual activity (ERBB4 (human)): 95% | residual activity (STK25 (human)): 97.3% | residual activity (CSF1R (human)): 63.5% | residual activity (MAPK13 (human)): 99.7% | residual activity (AKT2 (human)): 91.5% | residual activity (PHKG2 (human)): 102% | residual activity (CDK6 CCND1 (human)): 99.3% | residual activity (ROS1 (human)): 97.9% | residual activity (PLK2 (human)): 99.4% | residual activity (DAPK3 (human)): 102% | residual activity (FLT1 (human)): 93.6% | residual activity (FGFR1 (human)): 88.8% | residual activity (FER (human)): 104% | residual activity (MAP3K8 (human)): 99% | residual activity (CDK5 CDK5R1 p35 (human)): 107% | residual activity (MAP3K3 (human)): 117% | residual activity [1]: 102% | residual activity (TEK (human)): 96.6% | residual activity (TNK2 (human)): 100% | residual activity (DMPK (human)): 100% | residual activity (ROCK2 (human)): 107% | residual activity (AURKC (human)): 93.3% | residual activity (CSNK1G1 (human)): 92.2% | residual activity (PIM2 (human)): 114% | residual activity (LCK (human)): 86.3% | residual activity (EPHA4 (human)): 93.1% | residual activity (GRK5 (human)): 108% | residual activity (CDK2 CCNA2 (human)): 104% | residual activity (MUSK (human)): 90.6% | residual activity (ACVR1B (human)): 104% | residual activity (NEK3 (human)): 108% | residual activity (MAPK3 (human)): 117% | residual activity (ZAP70 (human)): 93.3%
